Assay results published in patent US20140303373A1, “CRYSTALLINE FORM OF TIOTROPIUM BROMIDE” (CERBIOS-PHARMA SA, priority 2013, published 2014).

Tests used:
[1] = accelerated stability study, related substances by HPLC (Eur. Ph. 07/2010:2420); format: physicochemical
Experimental: The tiotropium bromide accelerated stability studies were performed storing the drug substance, prepared as described in the previous examples, at 40±2° C./75±5% RH. Stability was evaluated in dark glass vial with screw cap. The frequency of the analyses performed has included five test points: 0, 7 days, 1, 3, and 6 months. Related substances amount of tiotropium bromide was measured by HPLC, following the Eur. Ph. procedure (07/2010:2420).

[2] = stability at 25° C./60% relative humidity (impurity profile and X-ray spectrum); format: physicochemical

C[N+]1(C)C2CC(OC(=O)C(O)(c3cccs3)c3cccs3)CC1[C@@H]1O[C@H]21.[Br-] (some centres unmarked) [Tiotropium Bromide]
impurity profile and X-ray spectrum on storage ([1]; 40° C./75% RH): did not change for at least six months | Related substances: Impurity A, RRT 0.40-0.47 ([1]; 40±2° C./75±5% RH, 7 days): 0.02 | Related substances: Impurity B, RRT 0.79-0.84 ([1]; 40±2° C./75±5% RH, 7 days): 0.04 | Related substances: unnamed, RRT 0.98 ([1]; 40±2° C./75±5% RH, 7 days): 0.03 | Related substances: unnamed, RRT 1.21-1.35 ([1]; 40±2° C./75±5% RH, 7 days): 0.01 | Related substances: unnamed, RRT 1.22-1.37 ([1]; 40±2° C./75±5% RH, 7 days): 0.02 | Sum of impurities ([1]; 40±2° C./75±5% RH, 7 days): 0.12 | Tiotropium Bromide, RRT 1.00 (HPLC) ([1]; 40±2° C./75±5% RH, 7 days): 99.88 | Related substances: Impurity A, RRT 0.40-0.47 ([1]; 40±2° C./75±5% RH, 30 d): 0.02 | Related substances: Impurity B, RRT 0.79-0.84 ([1]; 40±2° C./75±5% RH, 30 d): 0.04 | Related substances: unnamed, RRT 0.98 ([1]; 40±2° C./75±5% RH, 30 d): 0.03 | Related substances: unnamed, RRT 1.22-1.37 ([1]; 40±2° C./75±5% RH, 30 d): 0.03 | Sum of impurities ([1]; 40±2° C./75±5% RH, 30 d): 0.12 | Tiotropium Bromide, RRT 1.00 (HPLC) ([1]; 40±2° C./75±5% RH, 30 d): 99.88 | Related substances: Impurity A, RRT 0.40-0.47 ([1]; 40±2° C./75±5% RH, 90 d): 0.02 | Related substances: Impurity B, RRT 0.79-0.84 ([1]; 40±2° C./75±5% RH, 90 d): 0.04 | Related substances: Impurity E, RRT 1.73 ([1]; 40±2° C./75±5% RH, 90 d): 0.01 | Related substances: unnamed, RRT 0.39 ([1]; 40±2° C./75±5% RH, 90 d): 0.02 | Related substances: unnamed, RRT 0.98 ([1]; 40±2° C./75±5% RH, 90 d): 0.02 | Related substances: unnamed, RRT 1.21-1.35 ([1]; 40±2° C./75±5% RH, 90 d): 0.02 | Related substances: unnamed, RRT 1.22-1.37 ([1]; 40±2° C./75±5% RH, 90 d): 0.03 | Related substances: unnamed, RRT 1.50-1.53 ([1]; 40±2° C./75±5% RH, 90 d): 0.01 | Sum of impurities ([1]; 40±2° C./75±5% RH, 90 d): 0.17 | Tiotropium Bromide, RRT 1.00 (HPLC) ([1]; 40±2° C./75±5% RH, 90 d): 99.83 | Related substances: Impurity A, RRT 0.40-0.47 ([1]; 40±2° C./75±5% RH, 180 d): 0.02 | Related substances: Impurity B, RRT 0.79-0.84 ([1]; 40±2° C./75±5% RH, 180 d): 0.04 | Related substances: unnamed, RRT 0.98 ([1]; 40±2° C./75±5% RH, 180 d): 0.02 | Related substances: unnamed, RRT 1.21-1.35 ([1]; 40±2° C./75±5% RH, 180 d): 0.02 | Related substances: unnamed, RRT 1.22-1.37 ([1]; 40±2° C./75±5% RH, 180 d): 0.03 | Related substances: unnamed, RRT 1.50-1.53 ([1]; 40±2° C./75±5% RH, 180 d): 0.01 | Sum of impurities ([1]; 40±2° C./75±5% RH, 180 d): 0.14 | Tiotropium Bromide, RRT 1.00 (HPLC) ([1]; 40±2° C./75±5% RH, 180 d): 99.86 | Related substances: Impurity A, RRT 0.40-0.47 ([1]; 40±2° C./75±5% RH, Time 0): 0.02 | Related substances: Impurity B, RRT 0.79-0.84 ([1]; 40±2° C./75±5% RH, Time 0): 0.04 | Related substances: unnamed, RRT 0.98 ([1]; 40±2° C./75±5% RH, Time 0): 0.03 | Related substances: unnamed, RRT 1.21-1.35 ([1]; 40±2° C./75±5% RH, Time 0): 0.01 | Related substances: unnamed, RRT 1.22-1.37 ([1]; 40±2° C./75±5% RH, Time 0): 0.02 | Related substances: unnamed, RRT 1.50-1.53 ([1]; 40±2° C./75±5% RH, Time 0): 0.01 | Sum of impurities ([1]; 40±2° C./75±5% RH, Time 0): 0.13 | Tiotropium Bromide, RRT 1.00 (HPLC) ([1]; 40±2° C./75±5% RH, Time 0): 99.87 | impurity profile and X-ray spectrum on storage [2]: did not change for at least six months
